What was measured:
Format in all cases: functional, cell-based
[1] = Antiproliferative activity against human fibroblast cells after 48 hrs by resazurin reduction assay
MCF7 = experiment: Antiproliferative activity against human MCF7 cells after 48 hrs by resazurin reduction assay; details: MCF7, 48 h
PA-1 = experiment: Antiproliferative activity against human PA1 cells after 48 hrs by resazurin reduction assay; details: PA-1, 48 h

Row | Compound | IC50 [1] [µM] | IC50 (MCF7) [µM] | IC50 (PA-1) [µM]
1 | CCOc1ccc2ccc(-c3cc4ccc(-c5cc6ccccc6nc5OCC)cc4nc3OCC)cc2n1 | > 100 | > 100 | 50
2 | CCOc1ccc2ccc(-c3cc4ccccc4nc3OCC)cc2n1 | 37 | > 100 | 37
3 | COc1ccc2ccc(-c3cc4ccccc4nc3OC)cc2n1 | 54 | > 100 | 36

Source: ChEMBL document CHEMBL1157037, “Synthesis and in vitro antiproliferative activities of quinoline derivatives” (Eur J Med Chem, 2010)
